Structures are written as SMILES.

Our source for the Kd values is BindingDB's records for doi:10.7270/Q25B01BH (D3R/Abbott, 2015).

In the test the target is Cyclin-dependent kinase 2 (Homo sapiens, UniProt P24941). As to the kind of experiment: OctetRed_Method1. The source says:
OctetRed_Method1

Turning to `COc1ccc2c(C)nc(Nc3nc(C)cc(O)n3)nc2c1`, the Kd was above 100 µM.

As for `O=C(O)c1cccc(CSc2nnc(-c3ccncc3)o2)c1` [3-({[5-(pyridin-4-yl)-1,3,4-oxadiazol-2-yl]sulfanyl}methyl)benzoic acid], the Kd is above 100 µM.

The compound `COc1cccc(NC(=O)CSc2nnnn2C)c1` [CS27] gave a Kd above 100 µM.

Compound `CCc1nnc(NS(=O)(=O)c2ccc(NC(=O)c3ccc(F)cc3)cc2)s1` [CS31] returned a Kd above 100 µM.

In turn, `COc1ccc(CC(NC(C)=O)c2ccc3cccnc3c2O)cc1OC` (centres undefined) [CS32] gave a Kd above 100 µM.

As to `O=S(=O)(NCCSc1ccccn1)c1ccc(Br)cc1` [CS33], the Kd was above 100 µM.

For the compound `CC1CCN(S(=O)(=O)c2ccc(Cl)c(C(=O)Nc3ccc(C(=O)O)cc3)c2)CC1` [CS34], the Kd is above 100 µM.

In turn, `COc1ccc(OCC(=O)Nc2cc(-c3nn4c(C)nnc4s3)ccc2C)cc1` [CS36] displayed a Kd above 100 µM.

Turning to `COc1ccc(NC(=O)CCSc2nnc3scc(-c4ccc(C)cc4)n23)cc1` [CS37], the equilibrium dissociation constant (Kd) is above 100 µM.

`COC(=O)c1ccccc1NC(=O)CSc1nnc(C23C[C@H]4C[C@@H](C2)C[C@@H](C3)C4)n1C` [CS38] yielded a Kd above 100 µM.

Regarding `COc1ccc(NC(=O)CSc2nnc(-c3ccncc3)[nH]2)cc1` [CS41], the Kd is above 100 µM.

`O=C(COc1ccccc1[N+](=O)[O-])Nc1ccccc1N1CCOCC1` [CS46]: the Kd is above 100 µM.

`COc1cc(OC)c(NC(=O)CSc2nnc(-c3ccccc3)n2C)cc1Cl` [CS47]: the Kd is above 100 µM.

Consider `CCOc1ccc2nc(SCC(=O)Nc3c(C)n(C)n(-c4ccccc4)c3=O)sc2c1` [CS49], for which the Kd is above 100 µM.

On to `COc1ccc(NC(=O)CSc2nnnn2C)cc1` [CS53], for which the Kd is above 100 µM.

`CCOc1ccc(C(C)=O)cc1Cc1c(O)nc(N)nc1O` [CS55] returned a Kd above 100 µM.

For the compound `O=C(CSc1nnc(-c2ccc([N+](=O)[O-])cc2)n1-c1ccccc1)N1CCOCC1` [CS58], the Kd is above 100 µM.

`COC(=O)c1ccc(NC(=O)CSc2nnc(-c3ccc(NC(C)=O)cc3)n2C)cc1` [CS59] showed a Kd above 100 µM.

`Cn1c(COc2cccc3cccnc23)nnc1SCC(N)=O` [CS64] had a Kd above 100 µM.

Regarding `CN1CCN(C(=O)CN(c2cc(C(F)(F)F)ccc2Cl)S(=O)(=O)c2ccccc2)CC1` [CS65], the Kd is above 100 µM.

`CCn1c(SCC(=O)Nc2cccc(C(C)=O)c2)nnc1-c1ccncc1` [CS66] showed a Kd above 100 µM.

`COc1ccc(C(=O)CSc2nnc(-c3ccc(OC)c(OC)c3)n2-c2ccccc2)cc1` [CS67] had a Kd above 100 µM.

Compound `Cc1c(NC(=O)C2CCCN2S(=O)(=O)c2ccccc2)c(=O)n(-c2ccccc2)n1C` (centres undefined) [CS68] registered a Kd above 100 µM.

Consider `NC(=O)c1ccc(NCCCN2CCOCC2)c([N+](=O)[O-])c1` [CS69], for which the Kd was above 100 µM.

On to `CC(=O)Nc1ccc(S(=O)(=O)Nc2c(C)nn(-c3ccccc3)c2C)cc1` [CS70], for which the dissociation constant Kd was above 100 µM.

On to `CC(=O)Nc1cccc(-c2nnc(SCC(=O)Nc3ccc(C(C)=O)cc3)n2C)c1` [CS71], for which the Kd is above 100 µM.

Consider `COC(=O)c1ccccc1NC(=O)CSc1nnc(-c2ccc(OC)cc2)n1C` [CS72], for which the Kd is above 100 µM.

On to `COc1ccc(-n2c(SCC(N)=O)nnc2-c2cccs2)cc1` [CS73], for which the Kd was above 100 µM.

The compound `CS(=O)(=O)c1ccc(NC(=O)CSc2nnc(-c3ccccc3F)n2-c2ccccc2)cc1` [CS74] registered a Kd above 100 µM.

Take `CN1CCN(C(=O)c2ccccc2N(Cc2ccccc2)S(C)(=O)=O)CC1` [CS76]: the Kd is above 100 µM.

`COC(=O)c1ccc(NC(=O)CSc2nnnn2-c2ccccc2OC)cc1` [CS77] yielded a Kd above 100 µM.

`COc1ccc(-c2nnc(SCC(=O)Nc3c(F)cc(F)cc3Br)n2C)cc1` [CS78]: the Kd is above 100 µM.

In the case of `O=C(Cn1c(NCCO)nc2ccccc21)c1cccc([N+](=O)[O-])c1` [CS80], the Kd is above 100 µM.

Consider `COc1cccc(-n2nnnc2SCC(=O)Nc2c(C)cc(C)cc2C)c1` [CS81], for which the dissociation constant Kd was above 100 µM.

Compound `COc1ccccc1NC(=O)CSc1nnc(-c2ccc([N+](=O)[O-])cc2)n1-c1ccccc1` [CS82] registered a Kd above 100 µM.

On to `COc1ccc(NC(=O)c2ccco2)cc1NC(=O)c1cccnc1` [CS85], for which the Kd is above 100 µM.

Take `COC(=O)c1ccccc1Oc1nc(NC(C)C)nc(NC(C)C)n1` [CS92]: the Kd was above 100 µM.

For `O=C(Nc1ccc(S(=O)(=O)Nc2ncccn2)cc1)c1c(Cl)cccc1Cl` [CS93], the Kd is above 100 µM.

`CCn1c(SCC(=O)Nc2cccc(OC)c2)nnc1-c1ccncc1` [CS95] displayed an equilibrium dissociation constant (Kd) above 100 µM.

Take `COc1cc(OC)c(NC(=O)CSc2nnc(-c3ccncc3)n2C)cc1Cl` [CS96]: the Kd was above 100 µM.

With `COc1ccccc1NC(=O)CSc1nnc(-c2ccc(F)cc2)n1C` [CS98], the Kd is above 100 µM.

As to `Cc1ccc(S(=O)(=O)Nc2ccccc2CNc2cnc3ccccc3c2)cc1` [CS100], the Kd is above 100 µM.

The compound `O=C(Cn1nc(-c2cccc([N+](=O)[O-])c2)c2ccccc2c1=O)NCC1CCCO1` (centres undefined) [CS102] gave a Kd above 100 µM.

As to `O=S(=O)(NCc1ccccn1)c1cc(Cl)c(Cl)cc1Cl` [CS104], the Kd is above 100 µM.

Consider `Cc1cc(C)c(S(=O)(=O)NCc2ccccn2)cc1C` [CS105], for which the Kd is above 100 µM.

With `COc1cc(OC)c(NC(=O)CSc2nnc(-c3ccncc3)n2-c2ccccc2)cc1Cl` [CS109], the equilibrium dissociation constant (Kd) was above 100 µM.

With `CC(=O)c1cccc(NC(=O)CSc2nnc(-c3cc4ccccc4cc3O)n2C)c1` [CS110], the Kd is above 100 µM.

For the compound `COc1ccc(C(=O)C(C)Oc2cccc(NC(=O)c3cccc([N+](=O)O)c3)c2)cc1` (centres undefined) [CS112], the Kd was above 100 µM.

Turning to `O=S(=O)(NCc1ccccn1)c1ccc(Cl)c(Cl)c1Cl` [CS116], the Kd is above 100 µM.

`CCn1c(SCC(=O)Nc2ccccc2OC)nnc1-c1ccco1` [CS119] returned a Kd above 100 µM.

On to `CN(CC(=O)Nc1ccccc1C(=O)N1CCCC1)CS(=O)(=O)c1ccc(Br)cc1` [CS130], for which the Kd is above 100 µM.

For `CC(Sc1nc2ccccc2[nH]1)C(=O)Nc1ccc(S(N)(=O)=O)cc1` (centres undefined) [CS140], the Kd is above 100 µM.

As for `COc1cc([N+](=O)[O-])ccc1NC(=O)CN1CCOCC1` [CS142], the Kd is above 100 µM.

`O=C1c2ccccc2C(=O)N1CCCc1nc(-c2cccc([N+](=O)[O-])c2)no1` [CS148]: the Kd was above 100 µM.

The compound `Cc1c(NS(=O)(=O)c2cccc3nonc23)c(=O)n(-c2ccccc2)n1C` [CS150] yielded a Kd above 100 µM.

With `Cc1cc(C)c(S(=O)(=O)N(C)CC(=O)N2CCC(C(N)=O)CC2)c(C)c1` [CS152], the Kd is above 100 µM.

The compound `O=C(Cn1ccc([N+](=O)[O-])n1)N1CCCc2ccccc21` [CS154] returned a Kd above 100 µM.

`CS(=O)(=O)N(CC(=O)Nc1ccccc1C(=O)N1CCOCC1)c1ccc(Cl)cc1` [CS160] had a Kd above 100 µM.

On to `Cc1ccnc(NS(=O)(=O)c2ccc(NC(=O)c3cncc(Br)c3)cc2)n1` [CS165], for which the Kd is above 100 µM.

As for `O=C(CSc1nnc(-c2ccccc2O)n1-c1ccccc1)Nc1cccc(C(=O)O)c1` [CS166], the Kd was above 100 µM.

`CCc1ccccc1NC(=O)CSc1nnc(-c2cccc(OC)c2)n1C` [CS169] displayed a Kd above 100 µM.

For the compound `CN1CCN(C(=O)CN(C)S(=O)(=O)c2ccc3ccccc3c2)CC1` [CS173], the Kd was above 100 µM.

In turn, `COc1cc(-c2nnc(SCC(N)=O)n2C)cc(OC)c1OC` [CS175] returned a Kd above 100 µM.

Compound `COc1ccc([N+](=O)[O-])cc1NC(=O)C(C)Oc1ccccc1C` (centres undefined) [CS177] came in with a Kd above 100 µM.

`COc1ccccc1CNC(=O)CSc1nnnn1-c1c(C)cccc1C` [CS184] had a Kd above 100 µM.

`Cn1c(Cc2ccccc2)nnc1Sc1ccc([N+](=O)[O-])cc1C(=O)N1CCOCC1` [CS188] yielded a Kd above 100 µM.

`COc1ccc(NC(=O)CN2CCOCC2)c([N+](=O)[O-])c1` [CS189] had a Kd above 100 µM.

`CCOC(=O)c1cnc(Nc2nc3ccccc3o2)nc1CN1CCN(c2ccccc2)CC1` [CS196] yielded a Kd above 100 µM.

`COc1ccccc1-n1nnnc1SCC(=O)Nc1ccccc1SC` [CS197] came in with a Kd above 100 µM.

Turning to `COc1ccccc1NC(=O)CSc1nncn1C` [CS198], the Kd was above 100 µM.

`O=C(Cn1cnc([N+](=O)[O-])n1)Nc1ccc(N2CCOCC2)c(Cl)c1` [CS200] registered a Kd above 100 µM.

As to `COc1cc(NC(=O)CSc2nncn2C)cc(OC)c1OC` [CS202], the Kd is above 100 µM.

As to `Cc1nonc1OCCNc1cc(N2CCOCC2)ccc1[N+](=O)[O-]` [CS204], the Kd is above 100 µM.

Compound `O=C(CC1OCCN(Cc2ccccc2)C1=O)Nc1ccc2c(c1)OCCO2` (centres undefined) [CS208] registered a Kd above 100 µM.

The compound `O=C(Cc1ccccc1[N+](=O)[O-])Nc1ccccc1C(=O)N1CCOCC1` [CS209] yielded a Kd above 100 µM.

Turning to `CCn1c(SCC(=O)Nc2ccccc2OC)nnc1-c1c[nH]c2ccccc12` [CS213], the Kd is above 100 µM.

In the case of `COc1ccccc1NC(=O)CSc1nnc(-c2ccccc2Cl)n1-c1ccccc1` [CS222], the Kd was above 100 µM.

`CSc1ccc(S(=O)(=O)NCc2ccccn2)cc1` [CS230] displayed a Kd above 100 µM.

The compound `Cn1nc([N+](=O)[O-])nc1Oc1ccccc1C(=O)N1CCOCC1` [CS231] gave a Kd above 100 µM.

For `Cc1cccc(NS(=O)(=O)c2cc(C(=O)Nc3ccccc3C(=O)N3CCOCC3)ccc2Cl)c1` [CS232], the Kd was above 100 µM.

On to `O=C(CSc1nnc(-c2ccncc2)o1)Nc1ccc(F)cc1` [CS234], for which the Kd is above 100 µM.

`COc1ccc2[nH]cc(CCNC(=O)Nc3ccc(Cl)c(Cl)c3)c2c1` [CS236] showed a Kd above 100 µM.

`Cc1nc2ncnn2c(O)c1NS(=O)(=O)c1ccc(Br)cc1` [CS237] yielded a Kd above 100 µM.

In the case of `Cc1ccc(NS(=O)(=O)c2cc(C(=O)Nc3ccccc3C(=O)N3CCOCC3)ccc2Cl)c(C)c1` [CS238], the Kd was above 100 µM.

Broadly, the Kd is a measure of binding affinity in units of concentration. A lower Kd goes with tighter binding.
